Tested on: CHIKV
Assay type: cell-based, chikungunya virus

s15685 (sense GGATGAGAGTCGCACCTAT; chemistry not given here)
Score_si1: 2.03

s15686 (sense CCATCCACATGTACATCAA; chemistry not given here)
Score_si2: 1.49

s15687 (sense CCCGTATCATGATCCACCA; chemistry not given here)
Score_si1: 1.56

s15796 (CTACGATTCTGGTGGAATA; chemistry not given here)
Score_si1: 1.5

s15797 (GGAATTACGGAGATATAGA; chemistry not given here)
Score_si3: 1.45

s15798 (GAATTACGGAGATATAGAA; chemistry not given here)
Score_si2: 1.46

s16045 (GGTTTATCCACGGTAAAGA; chemistry not given here) [reference compound]
Score_si4: -0.44

s16046 (GCACAGATCCTTCCGTTTA; chemistry not given here) [reference compound]
Score_si3: -0.45

s16047 (GAACCCATATTATTAGTGA; chemistry not given here) [reference compound]
Score_si2: -0.72

s16316 (GAATTAGGAAGGACTATTT; chemistry not given here)
Score_si2: 0.85

s16317 (GAACGAGTCCTTGAAGGTT; chemistry not given here)
Score_si4: 0.08

s16318 (AGGCATCTTTGAGACGATT; chemistry not given here)
Score_si3: 0.61

s16459 (GATGGATCCATGTAATACA; chemistry not given here)
Score_si4: 0.81

s16461 (GGTCAATCCTAGTATCTCT; chemistry not given here)
Score_si3: 0.88

s16633 (CAACCACAATGTTCGTAAA; chemistry not given here)
Score_si3: 1.99

s16634 (GCATAGTTTCGGTCATCTA; chemistry not given here)
Score_si1: 2.03

s16635 (GAGCACTACTTGTACATGA; chemistry not given here)
Score_si2: 2.02

s16837 (CAATGATCCAATCCACGAA; chemistry not given here)
Score_si1: 1.36

s16996 (CAACATTGGTGGGAATGCA; chemistry not given here)
Score_si2: 1.51

s16997 (CAGCTTCCATTATGCCCAA; chemistry not given here)
Score_si3: 0.97

s16998 (GAAATTCCATGTCATTGTA; chemistry not given here)
Score_si4: 0.65

s16999 (GCACGTAACAGCTAAGGAA; chemistry not given here)
Score_si2: 1.29

s17000 (GATGAAAGGTTACAATCCA; chemistry not given here)
Score_si3: 1.29

s17018 (GGAAATAGGTCTAGTACTA; chemistry not given here)
Score_si3: 1.2

s17019 (CCACGTGATAAATCAAGAA; chemistry not given here)
Score_si2: 1.29

s17187 (GGATTGACCTCACCCAGAA; chemistry not given here)
Score_si1: 2.03

s17301 (GCCTGGTATTTTGAAATCA; chemistry not given here)
Score_si3: 0.7

s17302 (GCTCCTTTAGGTTATGATA; chemistry not given here)
Score_si4: -0.05

s17590 (CAACAGTTCTCAGACCAAA; chemistry not given here) [reference compound]
Score_si2: -0.8

s17591 (CGATATGAACCTGACAGTA; chemistry not given here) [reference compound]
Score_si3: -0.15

s17592 (GCAACTCTCCTTCACCAAT; chemistry not given here) [reference compound]
Score_si4: -0.08

s17802 (GGAGTTAAACATAGATGTA; chemistry not given here)
Score_si3: 1.28

s17901 (GGAAATCGGCCTACAAGAT; chemistry not given here)
Score_si3: 1.51

s18074 (CCTCGAGACTATACGGTTA; chemistry not given here) [reference compound]
Score_si4: -0.5

— publication PMC4865845, “A human genome-wide loss-of-function screen identifies effective chikungunya antiviral drugs” (Nature Communications, 2016)
